Measurements: patent US12104173B2, “Method for differentiation of human pluripotent stem cell lines in suspension culture” (AGENCY FOR SCIENCE, TECHNOLOGY AND RESEARCH, priority 2018, dated 2024)

How the values were obtained:
[1] = system: X13 induced pluripotent stem cells (iPSCs) on microcarriers; test: screening of Wnt pathway activators: mesoderm induction (T-bra, KDR+PDGFRα−) by flow cytometry; assay type: cell-based, human; settings: compared to other Wnt pathway modulators
Description: (§1) (A) is a column graph showing two different concentrations of seven Wnt pathway activators (BIO, SB-216763, CHIR98014, Inhibitor VIII, Kenpaullone, DRF053 dihydrochloride and Wnt3a). which were selected from literature reviews and screened with CHIR99021 as a control for the disclosed hematopoietic differentiation protocol. The viability of the X13 induced pluripotent stem cells (iPSCs) on microcarriers were tabulated accordingly 24 hours post treatment of the various Wnt pathway modulators. […] (B) is a column graph showing the percentage of mesogerm induction.
Human induced pluripotent stem cell-microcarrier (hiPSC-MC) aggregates (1×10^6 cells/ml, or 1e6 cells/nil) were transferred to mesoderm induction medium (cytokines all from Stemcell Technologies) plus Stemline II Hematopoietic Stem Cell Expansion medium (SL2) in either 6-well ultra-low attachment plates (5 ml) under continuous agitation at 75 rpm or 125 ml spinner flasks (50 ml) under continuous agitation at 36 rpm. Daily medium changes as indicated: Day 0: SL2+30 ng/ml BMP4+50 ng/ml VEGF-165+40 ng/ml Activin A+12-15 μM CHIR-99021; Day 1: SL2+30 ng/ml BMP4+50 ng/ml VEGF-165+40 ng/ml Activin A; Day 2: SL2+20 ng/ml BMP4+30 ng/ml VEGF165+5 ng/ml Activin A+10 ng/ml bFGF+20 ng/ml SCF+0.4 ng/ml β-estradiol. Samples were collected on day 1 and day 3 for flow cytometry analysis of T-brachyury (T-Bra) and KDR/PDGFRα cells, respectively.

[2] = system: X13 induced pluripotent stem cells (iPSCs) on microcarriers; settings: 24 hours post treatment; 10 μM
Description: as §1

[3] = system: hES-3-MC aggregates (agitation culture); test: DoE multifactorial mesoderm induction: % KDR+ cells by flow cytometry; assay type: cell-based, human; settings: BMP4 10 to 50 ng/ml, Activin A 0-80 ng/ml, CHIR exposure 0 to 24 hours, 4 days post initiation of differentiation
Description: (§2) Different doses (and/or duration of exposure) of cytokines and small-molecules with known roles in inducing mesoderm and hematopoietic differentiation were evaluated using the MODDE® software for differentiation of hES-3 MC aggregate cultures initially derived under agitation. The DoE was designed to investigate effects of BMP4 (10-50 ng/ml), Activin A (0 to 80 ng/ml), CHIR (0-15 μM at 0 to 48 hours after start of mesoderm induction). These variables generated 29 culture conditions (FIG. 2A), which were tested for their effects on percent of KDR+ cells (4 days post initiation of differentiation) and the following stage of hematopoietic precursors generation (2 weeks of culture in Blast growth medium (BGM)).
(§3) Design of experiments (DoE) using a resolution IV Fractional Factorial Design was performed using the MODDE software (Sartorius Stedim Biotech, Germany) to evaluate initial BMP4, Activin A and CHIR-99021, doses and duration of exposure for their effects on the following response factors: induction of KDR+ cells 4 days post mesoderm induction or total hematopoietic precursor cells generated 2 weeks post differentiation.
Design of experiments (DoE) using a resolution IV Fractional Factorial Design was performed using the MODDE software (Sartorius Stedim Biotech, Germany) to evaluate initial BMP4, Activin A and CHIR-99021, doses and duration of exposure for their effects on the following response factors: induction of KDR+ cells 4 days post mesoderm induction or total hematopoietic precursors generated 2 weeks post differentiation. […] Computed model with R2 scores>0.5 indicate a model of significant fit, Q2 scores>0.1 indicate a significant model while Q2>0.5 indicate a good model for estimation of future prediction precision, model validity score of <0.25 indicate statistically significant model problems and reproducibility (the variation of the replicates compared to overall variability) should be greater than 0.5. […]

[4] = system: hES-3-MC aggregates (agitation culture); test: DoE: hematopoietic precursor generation, 14 days in Blast growth medium (BGM); assay type: cell-based, human; settings: BMP4 10 to 50 ng/ml, Activin A 0-80 ng/ml, CHIR exposure 0 to 24 hours, 2 weeks in BGM
Description: as §2
Design of experiments (DoE) using a resolution IV Fractional Factorial Design was performed using the MODDE software (Sartorius Stedim Biotech, Germany) to evaluate initial BMP4, Activin A and CHIR-99021, doses and duration of exposure for their effects on the following response factors: induction of KDR+ cells 4 days post mesoderm induction or total hematopoietic precursors generated 2 weeks post differentiation. […] Computed model with R2 scores>0.5 indicate a model of significant fit, Q2 scores>0.1 indicate a significant model while Q2>0.5 indicate a good model for estimation of future prediction precision, model validity score of <0.25 indicate statistically significant model problems and reproducibility (the variation of the replicates compared to overall variability) should be greater than 0.5.
Human pluripotent stem cell-microcarrier (HPSC-MC) aggregates (derived from 7 day continuous agitation conditions), equivalent to 5×10^5 cells, were seeded and differentiated in 24-well ultra-low attachment plates with Stemline II medium using multi-factorial conditions as detailed in FIG. 2A and FIG. 6A, as well as in Table 3. […]
Following 4 days of differentiation, single cells were derived from microcarrier aggregates by treatment with TrypLE. […] Fold-expansion was calculated as total number of cells derived after 2 weeks as compared to initial seeding of 1×10^5 cells.

[5] = system: O-neg hiPSC line (D5) expanded in agitated microcarrier cultures; test: DoE multifactorial analysis of KDR+ cells, O-neg hiPSC; assay type: cell-based, human; settings: CHIR exposure for 24 hours, 4 days post differentiation
Source text: (B) Plot of KDR levels (%) for respective conditions tested (day 4 post differentiation). Conditions 27, 28 and 29 are triplicates of the same condition tested. […] Act=Activin A; CHI=CHIR-99021 for 24 hr, CH2=CHIR-99021 from 24-48 hr; BMP=BMP4. Computed P-values are indicated below the chart.
These findings were also confirmed using an O-neg hiPSC line (D5) expanded in agitated microcarrier cultures (FIG. 6). […] In summary, from the Design of experiment analysis, it was established that a BMP4 dose of 10 to 50 ng/ml, Activin A dose of 25 to 50 ng/ml and exposure of CHIR for 24 hours at a dose of 6 to 12 μM would be efficient for the generation of KDR+ cells.
as §3, with “precursors” for “precursor cells”, “differentiation. […]” for “differentiation.”

Molecule: Cn1cc(C2=C(c3ccc(Cl)cc3Cl)C(=O)NC2=O)c2ccccc21 [SB-216763]
- T-bra expression ([1]; 5 μM): higher T-bra expression

Molecule: Nc1nc(NCCNc2ncc(-n3ccnc3)c(-c3ccc(Cl)cc3Cl)n2)ccc1[N+](=O)[O-] [CHIR98014]
- viability of X13 iPSCs on microcarriers [2]: significantly reduced viability
- T-bra expression ([1]; 1 μM): higher T-bra expression

B1: Activin A: dimeric protein complex comprising two beta-A subunits (protein, UniProt P08476 311-426, looked up)
Inhibin beta A chain: GLECDGKVNICCKKQFFVSFKDIGWNDWIIAPSGYHANYCEGECPSHIAGTSGSSLSFHSTVINHYRMRGHSPFANLKSCCVPTKLRPMSMLYYDDGQNIIKKDIQNMIVEECGCS
modifications: Inhibin beta A chain homodimer
notes: dimeric protein complex comprising two beta-A subunits
- effect of factor on percent of KDR+ cells (DoE) [3]: did not significantly alter
- effect of factor on hematopoietic precursor generation (DoE) [4]: did not significantly alter
- effect of factor on KDR+ cells (DoE) [5]: significant factors for increased KDR+ cells
